Reference: patent US20140309265A1, “MACROCYCLIC COMPOUNDS FOR INHIBITION OF INHIBITORS OF APOPTOSIS” (Ensemble Therapeutics, priority 2011, published 2014)
Read-outs that look alike come from different tables or passages of the source.

Key:
[1] = biological target: N-His-Tb-BIR3(241-356, XIAP) (Homo sapiens, UniProt P98170); assay: XIAP-BIR3 SMAC Peptide Fluorescence Polarization Assay (FPA); assay type: binding
[2] = biological target: T1, XIAP His-BIR2 (124-240/C202A/C213G) (Homo sapiens, UniProt P98170, C202A/C213G); assay: XIAP-BIR2/SMAC Peptide AlphaScreen Assay; assay type: binding; details: XIAP BIR2, AlphaScreen, Table 2; read-out: BIR2 IC50
T1 construct: additions of His-BIR2 (124-240/C202A/C213G), Biotinylated SMAC peptide
Protocol: A. XIAP-BIR2/SMAC Peptide AlphaScreen Assay Assays were performed in white, flat-bottom, 384-well ProxiPlates (Perkin Elmer). […] The reaction was incubated at room temperature for 60 minutes. After 60 minutes, 2.5 μL of Alphascreen detection reagent (Perkin Elmer) was added to the reaction mixture and incubated at room temperature in the dark for 120 minutes. The Alphascreen signal generated by the reaction was detected on the Envision Plate Reader. […] Compounds were dissolved at 10 mM in dimethylsulfoxide (DMSO) and evaluated at eleven concentrations. IC50 values were derived by non-linear regression analysis.

[3] = XIAP BIR3, FPA, Table 2, read-out: BIR3 IC50

Chain of N-His-Tb-BIR3(241-356, XIAP) (P98170 241-356): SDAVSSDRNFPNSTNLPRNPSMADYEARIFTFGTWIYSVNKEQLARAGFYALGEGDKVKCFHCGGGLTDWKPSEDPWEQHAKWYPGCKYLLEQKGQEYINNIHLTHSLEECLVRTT
T1 sequence (P98170 124-240 C202A/C213G): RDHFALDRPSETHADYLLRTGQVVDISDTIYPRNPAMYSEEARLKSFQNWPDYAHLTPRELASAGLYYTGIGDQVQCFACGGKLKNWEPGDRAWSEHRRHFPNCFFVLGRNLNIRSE

| Structure (SMILES) | IC50 [1, 3] [nM] | IC50 [2] [µM] | IC50 [1] [nM] |
| --- | --- | --- | --- |
| CN[C@@H](C)C(=O)N[C@H](C(=O)N1CCc2cn(nn2)CCCOc2ccc(cc2)C[C@@H](C(=O)O)NC(=O)[C@H](Cc2ccccc2)NC(=O)CN(C(=O)[C@@H](NC(=O)[C@H](C)NC)C(C)C)CCc2cn(nn2)CCCOc2ccc(cc2)C[C@@H](C(=O)O)NC(=O)[C@H](Cc2ccccc2)NC(=O)C1)C(C)C [Compound 103] | > 100 | 2 to 12 | – |
| CN[C@@H](C)C(=O)N[C@H](C(=O)N1C[C@@H]2C[C@H]1C(=O)N[C@@H](Cc1ccccc1)C(=O)N[C@H](C(=O)N1CCN(C)CC1)Cc1ccc(cc1)OCc1cn(nn1)[C@H]1C[C@@H](C(=O)N[C@@H](Cc3ccccc3)C(=O)N[C@H](C(=O)N3CCN(C)CC3)Cc3ccc(cc3)OCc3cn2nn3)N(C(=O)[C@@H](NC(=O)[C@H](C)NC)C(C)C)C1)C(C)C [Compound 104] | – | > 12 | 50 to 100 |
| CCN(CC)C(=O)[C@@H]1Cc2ccc(cc2)OCc2cn(nn2)[C@H]2C[C@@H](C(=O)N[C@@H](Cc3ccccc3)C(=O)N[C@H](C(=O)N(CC)CC)Cc3ccc(cc3)OCc3cn(nn3)[C@H]3C[C@@H](C(=O)N[C@@H](Cc4ccccc4)C(=O)N1)N(C(=O)[C@@H](NC(=O)[C@H](C)NC)C(C)C)C3)N(C(=O)[C@@H](NC(=O)[C@H](C)NC)C(C)C)C2 [Compound 105] | – | > 12 | 50 to 100 |
| CN[C@@H](C)C(=O)N[C@H](C(=O)N1C[C@@H]2C[C@H]1C(=O)N[C@@H](Cc1ccccc1)C(=O)N[C@H](C(=O)NCCN(C)C)Cc1ccc(cc1)OCc1cn(nn1)[C@H]1C[C@@H](C(=O)N[C@@H](Cc3ccccc3)C(=O)N[C@H](C(=O)NCCN(C)C)Cc3ccc(cc3)OCc3cn2nn3)N(C(=O)[C@@H](NC(=O)[C@H](C)NC)C(C)C)C1)C(C)C [Compound 106] | – | > 12 | 50 to 100 |
| CN[C@@H](C)C(=O)N[C@H](C(=O)N1C[C@@H]2C[C@H]1C(=O)N[C@@H](CCc1ccccc1)C(=O)N[C@H](C(=O)O)Cc1ccc(cc1)OCc1cn(nn1)[C@H]1C[C@@H](C(=O)N[C@@H](CCc3ccccc3)C(=O)N[C@H](C(=O)O)Cc3ccc(cc3)OCc3cn2nn3)N(C(=O)[C@@H](NC(=O)[C@H](C)NC)C(C)C)C1)C(C)C [Compound 107] | – | < 2 | > 100 |
| CN[C@@H](C)C(=O)N[C@@H](CC1CCCCC1)C(=O)N1C[C@@H]2C[C@H]1C(=O)N[C@@H](Cc1ccccc1)C(=O)N[C@H](C(=O)O)Cc1ccc(cc1)OCc1cn(nn1)[C@H]1C[C@@H](C(=O)N[C@@H](Cc3ccccc3)C(=O)N[C@H](C(=O)O)Cc3ccc(cc3)OCc3cn2nn3)N(C(=O)[C@H](CC2CCCCC2)NC(=O)[C@H](C)NC)C1 [Compound 109] | – | < 2 | < 50 |
| CN[C@@H](C)C(=O)N[C@H](C(=O)N1C[C@@H]2C[C@H]1C(=O)N[C@@H](Cc1cccc(C(F)(F)F)c1)C(=O)N[C@H](C(=O)O)Cc1ccc(cc1)COc1cn(nn1)[C@H]1C[C@@H](C(=O)N[C@@H](Cc3cccc(C(F)(F)F)c3)C(=O)N[C@H](C(=O)O)Cc3ccc(cc3)OCc3cn2nn3)N(C(=O)[C@@H](NC(=O)[C@H](C)NC)C(C)C)C1)C(C)C [Compound 112] | – | 2 to 12 | < 50 |
| CN[C@@H](C)C(=O)N[C@H](C(=O)N1C[C@@H]2C[C@H]1C(=O)N[C@@H](Cc1ccc(C(F)(F)F)cc1)C(=O)N[C@H](C(=O)O)Cc1ccc(cc1)COc1cn(nn1)[C@H]1C[C@@H](C(=O)N[C@@H](Cc3ccc(C(F)(F)F)cc3)C(=O)N[C@H](C(=O)O)Cc3ccc(cc3)OCc3cn2nn3)N(C(=O)[C@@H](NC(=O)[C@H](C)NC)C(C)C)C1)C(C)C [Compound 113] | – | > 12 | 50 to 100 |
| CN[C@@H](C)C(=O)N[C@H](C(=O)N1C[C@@H]2C[C@H]1C(=O)N[C@@H](Cc1ccc(-c3ccccc3)cc1)C(=O)N[C@H](C(=O)O)Cc1ccc(cc1)COc1cn(nn1)[C@H]1C[C@@H](C(=O)N[C@@H](Cc3ccc(-c4ccccc4)cc3)C(=O)N[C@H](C(=O)O)Cc3ccc(cc3)OCc3cn2nn3)N(C(=O)[C@@H](NC(=O)[C@H](C)NC)C(C)C)C1)C(C)C [Compound 114] | – | < 2 | < 50 |
| CN[C@@H](C)C(=O)N[C@H](C(=O)N1C[C@@H]2C[C@H]1C(=O)N[C@@H](Cc1ccc(OCc3ccccc3)cc1)C(=O)N[C@H](C(=O)O)Cc1ccc(cc1)COc1cn(nn1)[C@H]1C[C@@H](C(=O)N[C@@H](Cc3ccc(OCc4ccccc4)cc3)C(=O)N[C@H](C(=O)O)Cc3ccc(cc3)OCc3cn2nn3)N(C(=O)[C@@H](NC(=O)[C@H](C)NC)C(C)C)C1)C(C)C [Compound 115] | – | 2 to 12 | < 50 |
| CC[C@H](NC(=O)[C@H](C)NC)C(=O)N1C[C@@H]2C[C@H]1C(=O)N[C@@H](Cc1ccccc1)C(=O)N[C@H](C(=O)O)Cc1ccc(cc1)OCc1cn(nn1)[C@H]1C[C@@H](C(=O)N[C@@H](Cc3ccccc3)C(=O)N[C@H](C(=O)O)Cc3ccc(cc3)OCc3cn2nn3)N(C(=O)[C@H](CC)NC(=O)[C@H](C)NC)C1 [Compound 117] | – | < 2 | < 50 |
| CN[C@@H](C)C(=O)N[C@@H](C)C(=O)N1C[C@@H]2C[C@H]1C(=O)N[C@@H](Cc1ccccc1)C(=O)N[C@H](C(=O)O)Cc1ccc(cc1)OCc1cn(nn1)[C@H]1C[C@@H](C(=O)N[C@@H](Cc3ccccc3)C(=O)N[C@H](C(=O)O)Cc3ccc(cc3)OCc3cn2nn3)N(C(=O)[C@H](C)NC(=O)[C@H](C)NC)C1 [Compound 118] | – | > 12 | 50 to 100 |
| CN[C@@H](C)C(=O)N[C@@H](CC(C)C)C(=O)N1C[C@@H]2C[C@H]1C(=O)N[C@@H](Cc1ccccc1)C(=O)N[C@H](C(=O)O)Cc1ccc(cc1)OCc1cn(nn1)[C@H]1C[C@@H](C(=O)N[C@@H](Cc3ccccc3)C(=O)N[C@H](C(=O)O)Cc3ccc(cc3)OCc3cn2nn3)N(C(=O)[C@H](CC(C)C)NC(=O)[C@H](C)NC)C1 [Compound 119] | – | < 2 | < 50 |
| CN[C@@H](C)C(=O)N[C@H](C(=O)N1C[C@@H]2C[C@H]1C(=O)N[C@@H](Cc1ccccc1)C(=O)N[C@H](C(=O)O)Cc1ccc(cc1)OCc1cn(nn1)[C@H]1C[C@@H](C(=O)N[C@@H](Cc3ccccc3)C(=O)N[C@H](C(=O)O)Cc3ccc(cc3)OCc3cn2nn3)N(C(=O)[C@@H](NC(=O)[C@H](C)NC)C2CCCCC2)C1)C1CCCCC1 [Compound 120] | – | < 2 | < 50 |
| CN[C@@H](C)C(=O)NCC1(C(=O)N2C[C@@H]3C[C@H]2C(=O)N[C@@H](Cc2ccccc2)C(=O)N[C@H](C(=O)O)Cc2ccc(cc2)OCc2cn(nn2)[C@H]2C[C@@H](C(=O)N[C@@H](Cc4ccccc4)C(=O)N[C@H](C(=O)O)Cc4ccc(cc4)OCc4cn3nn4)N(C(=O)C3(CNC(=O)[C@H](C)NC)CC3)C2)CC1 [Compound 121] | > 100 | > 12 | – |
| CN[C@@H](C)C(=O)N[C@H](C(=O)N1C[C@@H]2C[C@H]1C(=O)N[C@@H](CC1CCCCC1)C(=O)N[C@H](C(=O)O)Cc1ccc(cc1)OCc1cn(nn1)[C@H]1C[C@@H](C(=O)N[C@@H](CC3CCCCC3)C(=O)N[C@H](C(=O)O)Cc3ccc(cc3)OCc3cn2nn3)N(C(=O)[C@@H](NC(=O)[C@H](C)NC)C(C)C)C1)C(C)C [Compound 122] | – | 2 to 12 | > 100 |
| CN[C@@H](C)C(=O)N[C@H](C(=O)N1C[C@@H]2C[C@H]1C(=O)N[C@@H](COCc1ccccc1)C(=O)N[C@H](C(=O)O)Cc1ccc(cc1)OCc1cn(nn1)[C@H]1C[C@@H](C(=O)N[C@@H](COCc3ccccc3)C(=O)N[C@H](C(=O)O)Cc3ccc(cc3)OCc3cn2nn3)N(C(=O)[C@@H](NC(=O)[C@H](C)NC)C(C)C)C1)C(C)C [Compound 123] | – | 2 to 12 | > 100 |
